How the values were obtained:
[1] = test system: Human non-small cell lung cancer cells NCI-H1299; test: NCI-H1299 cell proliferation inhibition (CellTiter-Glo); format: cell-based; conditions: cultured 3 days, table head NCI-H1975, method NCI-H1299
Protocol: 2. Determination of Cell Proliferation Activity of Compounds:
NCI-H1299 cell proliferation inhibition screening method was established using CellTiter-fib detection reagent from Promega.
Human non-small cell lung cancer cells NCI-H1299 were cultured in 25 cm^2 or 75 cm^2 plastic tissue culture flasks (Corning) filled with DMEM (Gibco) medium supplemented with 10% fetal bovine serum (Hyclone) under 37° C., 95% air, and 5% CO2, and subcultured 2-3 times a week.
Cells were seeded at 1000 cells/well in a 96-well cell culture plate (Corning), 195 μL/well, and cultured under 37° C., 95% air, and 5% CO2. The next day test compound was added: 10 mM compounds (dissolved in DMSO) were subjected to 3-fold gradient dilution in DMSO, 2 μL of diluent from each concentration was added to 48 μL of serum-fret medium, and finally 5 μL of the diluted compound was added to the plate seeded with cells. The final concentration of DMSO in the cell culture was 0.1% and the foul concentration of the test compound was 0.3 nM-10 μM. The cells were cultured at 37° C. for 3 days.

WEE1 kinase = target: T1, WEE1 kinase (Homo sapiens, UniProt P30291); test: WEE1 kinase binding assay (LanthaScreen EU); conditions: WEE1 kinase 20 nM, Kinase Tracer 178 100 nM, 23° C. for 60 min, read-out: WEEI (IC50)
T1 construct: purchased Carna bioscience
T1 sequence (P30291 whole entry): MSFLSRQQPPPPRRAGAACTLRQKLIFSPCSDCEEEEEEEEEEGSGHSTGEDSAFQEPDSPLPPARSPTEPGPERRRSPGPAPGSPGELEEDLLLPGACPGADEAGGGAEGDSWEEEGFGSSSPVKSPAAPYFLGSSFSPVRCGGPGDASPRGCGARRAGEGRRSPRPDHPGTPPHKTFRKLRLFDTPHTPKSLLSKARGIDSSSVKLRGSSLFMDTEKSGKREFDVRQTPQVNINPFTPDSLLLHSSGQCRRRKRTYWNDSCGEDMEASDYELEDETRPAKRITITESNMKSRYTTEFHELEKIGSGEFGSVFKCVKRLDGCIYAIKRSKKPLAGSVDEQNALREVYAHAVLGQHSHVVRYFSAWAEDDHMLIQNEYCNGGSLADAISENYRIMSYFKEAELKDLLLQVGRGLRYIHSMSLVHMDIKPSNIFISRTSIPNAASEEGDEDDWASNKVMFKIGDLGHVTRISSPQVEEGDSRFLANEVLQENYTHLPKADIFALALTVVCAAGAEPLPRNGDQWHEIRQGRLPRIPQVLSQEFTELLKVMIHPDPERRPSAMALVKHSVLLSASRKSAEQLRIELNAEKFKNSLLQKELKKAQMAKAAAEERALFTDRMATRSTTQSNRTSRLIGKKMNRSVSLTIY
Protocol: 1. Assay for WEE1 Kinase Inhibitory Activity (IC50) on Compounds
The WEE1 kinase binding assay was established and optimized with LanthaScreen EU for the determination of the activity of compounds. 10 mM compounds were subjected to ten-fold gradient dilution in 100% DMSO (6 concentrations in total), 5 μL of diluent from each concentration was added to 45 μL of reaction buffer (50 mM HEPES (4-hydroxyethylpiperazine ethanesulfonic acid), pH 7.5, 10 mM MgCl2 (magnesium chloride), 1 mM EGTA (ethylene glycol diethyl ether diamine tetraacetic acid), 0.01% Brij-35 (polyoxyethylene lauryl ether)) for blending. On this basis, 2 μL diluent from each concentration was added to 48 μL of reaction buffer for blending as a 4*compound (final concentrations of 1000, 100, 10, 1, 0.1, 0 nM) for later use. Reaction buffer was used to formulate 4*WEE1 kinase (purchased from Carna bioscience, a final concentration of 20 nM), 4*LanthaScreen EU-anti-GST Antibody (purchased from Invitrogen, PV5594, a fuel concentration of 2 nM), and 4*Kinase Tracer 178 (purchased from Invitrogen, PV5593, a final concentration of 100 nM). 2.5 μL of 4*compound was added to a 384-well plate (OptiPlate-384, purchased from PerkinElmer), followed by adding 2.5 μL of 4*WEE1 kinase, standing for 5 min at room temperature. Then 2.5 μL of 4*LanthaScreen EU-anti-GST Antibody was added followed by 2.5 μL of 4*Kinase Tracer 178. The reaction was started by centrifugation (a total reaction volume of 10 μL). The 384-well plate was wrapped with tin foil paper and placed in an incubator at 23° C. for 60 min. Fluorescence values (excitation at 320 nm, detecting emitted light at 665 nm and 615 nm, and a ratio of the two as enzyme activity) were read on Envision (purchased from PerkinElmer). The enzyme activity of each compound was measured at 6 concentrations, and the IC50 value of the compound was calculated using GraFit6.0 software (Erithacus Software).
The aforementioned “*” refers to multiplying, representing multiples.

`CCCc1c(F)c2cnc(Nc3ccc(N4CCN(C)CC4)cc3)nc2n1-c1cccc(N=S(C)(C)=O)n1` [Example 1, ((6-(5-fluoro-2-((4-(4-methylpiperazin-1-yl)phenyl)amino)-6-propyl-7H-pyrrolo[2,3-d]pyrimidin-7-yl)pyridin-2-yl)imino)dimethyl-λ^6-sulfanone] was tested, and the IC50 ([1]; Homo sapiens, 72 h) was 43 nM and the IC50 (WEE1 kinase) was 0.57 nM.

Work on `CCCc1cc2cnc(Nc3ccc(N4CCN(C)CC4)cc3)nc2n1-c1cccc(C(C)(C)O)n1` [Example 2, 2-(6-(2-((4-(4-methylpiperazin-1-yl)phenyl)amino)-6-propyl-7H-pyrrolo[2,3-d]pyrimidin-7-yl)pyridin-2-yl)propan-2-ol] yielded an IC50 (WEE1 kinase) of 0.88 nM.

`CCCc1cc2cnc(Nc3ccc(N4CCN(C)CC4)cc3)nc2n1-c1cccc(N=S(C)(C)=O)n1` [Example 4, ((6-(2-((4 (4-methylpiperazin-1-yl)phenyl)amino)-6-propyl-7H-pyrrolo[2,3-d]pyrimidin-7-yl)pyridin-2-yl)imino)dimethyl-λ^6-sulfanone] gave an IC50 ([1]; Homo sapiens, 72 h) of 33 nM and an IC50 (WEE1 kinase) of 0.76 nM.

For `CC(C)c1cc2cnc(Nc3ccc(N4CCN(C)CC4)cc3)nc2n1-c1cccc(N=S(C)(C)=O)n1` [Example 6, ((6-(6-isopropyl-2-((4 (4-methylpiperazin-1-yl)phenyl)amino)-7H-pyrrolo[2,3-d]pyrimidin-7-yl)pyridin-2-yl)imino)dimethyl-λ^6-sulfanone], the IC50 (WEE1 kinase) was 0.96 nM.

`CCCc1cc2cnc(Nc3ccc(N4CCN(C)CC4)cc3)nc2n1-c1cccc(N=S(C)(C)=O)n1` [Example 7, ((6-(6-propyl-2-((4-(4-methylpiperazin-yl)phenyl)amino)-7H-pyrrolo[2,3-d]pyrimidin-7-yl)pyridin-2-yl)imino)dimethyl-λ^6-sulfanone] gave an IC50 [1] of 42 nM and an IC50 (WEE1 kinase) of 0.92 nM.

In the case of `Cc1cc2cnc(Nc3ccc(N4CCN(C)CC4)cc3)nc2n1-c1cccc(N=S(C)(C)=O)n1` [Example 13, ((6-(6-methyl-2 ((4 (4-methylpiperazin-1-yl)phenyl)amino)-7H-pyrrolo[2,3-d]pyrimidin-7-yl)pyridin-2-yl)imino)dimethyl-λ^6-sulfanone], the IC50 ([1]; Homo sapiens, 72 h) is reported as 59 nM and the IC50 (WEE1 kinase) is reported as 0.51 nM.

`CN(C)CCN(C)c1ccc(Nc2ncc3c(F)c(C4CC4)n(-c4cccc(N=S(C)(C)=O)n4)c3n2)cc1` [Example 14, ((6-(5-fluoro-2-((4-((2-(dimethylamino)ethyl)(methyl)amino)phenyl)amino)-6-cyclopropyl-7H-pyrrolo[2,3-d]pyrimidin-7-yl)pyridin-2-yl)imino)dimethyl-λ^6-sulfanone] gave an IC50 (WEE1 kinase) of 1 nM.

For `CN1CCN(c2ccc(Nc3ncc4c(F)c(C5CC5)n(-c5cccc(N=S(C)(C)=O)n5)c4n3)cc2)CC1CO` (centres unmarked) [Example 27, ((6-(6-cyclopropyl-5-fluoro-2 ((4-(3-hydroxymethyl-4-methylpiperazin-1-yl)phenyl)amino)-7H-pyrrolo[2,3-d]pyrimidin-7-yl)pyridin-2-yl)imino)dimethyl-λ^6-sulfanone], the IC50 ([1]; Homo sapiens, 72 h) was 60 nM and the IC50 (WEE1 kinase) was 0.57 nM.

`CN1CCN(c2ccc(Nc3ncc4c(F)c(C5CC5)n(-c5cccc(N=S(C)(C)=O)n5)c4n3)cc2)C(CO)C1` (centres unmarked) [Example 28] was tested, and the IC50 [1] was 40 nM and the IC50 (WEE1 kinase) was 1.3 nM.

For `CN(C)CCc1ccc(Nc2ncc3c(F)c(C4CC4)n(-c4ccnc(N=S(C)(C)=O)n4)c3n2)cc1` [Example 32, ((6-(5-fluoro-2-((4-(2-(dimethylamino)ethyl)phenyl)amino)-6-cyclopropyl-7H-pyrrolo[2,3-d]pyrimidin-7-yl)pyrimidin-2-yl)imino)dimethyl-λ^6-sulfanone], the IC50 [1] was 31 nM and the IC50 (WEE1 kinase) was 0.69 nM.

Compound `CS(C)(=O)=Nc1cccc(-n2c(C3CC3)c(F)c3cnc(Nc4ccc(N5CCC(N6CCOCC6)CC5)cc4)nc32)n1` [Example 35, ((6-(5-fluoro-2-((4-(4-(morpholine 4-yl)piperidin-1-yl)phenyl)amino)-6-cyclopropyl-7H-pyrrolo[2,3-d]pyrimidin-7-yl)pyridin-2-yl)imino)dimethyl-λ^6-sulfanone] has an IC50 (WEE1 kinase) of 0.61 nM.

With `CN1CCN(c2ccc(Nc3ncc4c(F)c(C5CC5)n(-c5cccc(N=S(C)(C)=O)n5)c4n3)cn2)CC1` [Example 37, ((6-(6-cyclopropyl-5-fluoro-2-((6-(4-methylpiperazin-1-yl)pyridin-3-yl)amino)-7H-pyrrolo[2,3-d]pyrimidin-7-yl)pyridin-2-yl)imino)dimethyl-λ^6-sulfanone] the IC50 (WEE1 kinase) was 1.08 nM.

Work on `COc1cc(Nc2ncc3cc(C4CC4)n(-c4cccc(N=S(C)(C)=O)n4)c3n2)ccc1N1CCN(C)CC1` [Example 38, ((6-(2-(((3-methoxy-4-(4-methylpiperazin-1-yl)phenyl))amino)-6-cyclopropyl-7H-pyrrolo[2,3-d]pyrimidin-7-yl)pyridin-2-yl)imino)dimethyl-λ^6-sulfanone] yielded an IC50 (WEE1 kinase) of 0.3 nM.

`CN1CCN(c2ccc(Nc3ncc4cc(C5CC5)n(-c5cccc(N=S(C)(C)=O)n5)c4n3)cc2F)CC1` [Example 40, ((6-(2-(((3-fluoro-4-(4-methylpiperazin-1-yl)phenyl))amino) 6-cyclopropyl-7H-pyrrolo[2,3-d]pyrimidin-7-yl)pyridin-2-yl)imino)dimethyl-λ^6-sulfanone] was tested, and the IC50 ([1]; Homo sapiens, 72 h) was 42 nM and the IC50 (WEE1 kinase) was 0.51 nM.

In the case of `CN1CCN(C2CCN(c3ccc(Nc4ncc5c(F)c(C6CC6)n(-c6cccc(N=S(C)(C)=O)n6)c5n4)cc3F)CC2)CC1` [Example 47, ((6-(5-fluoro-2-((3-fluoro-4-(4-(4-methylpiperazin-1-yl)piperidin-1-yl)phenyl)amino)-6-cyclopropyl-7H-pyrrolo[2,3-d]pyrimidin-7-yl)pyridin-2-yl)imino)dimethyl-λ^6-sulfanone], the IC50 ([1]; Homo sapiens, 72 h) is reported as 63 nM and the IC50 (WEE1 kinase) is reported as 0.97 nM.

Work on `CN1CCN(C2CCN(c3ccc(Nc4ncc5cc(C6CC6)n(-c6cccc(N=S(C)(C)=O)n6)c5n4)cc3Cl)CC2)CC1` [Example 54] yielded an IC50 (WEE1 kinase) of 1.04 nM.

With `CN1CCN(c2ccc(Nc3ncc4cc(C5CC5)n(-c5cccc(C(C)(C)O)n5)c4n3)cc2)CC1` [Example 55, 2-(6-(2-((4-(4-methylpiperazin-1-yl)phenyl)amino)-6-cyclopropyl-7H-pyrrolo[2,3-d]pyrimidin-7-yl)pyridin-2-yl)propan-2-ol] the IC50 (WEE1 kinase) was 0.98 nM.

In the case of `CS(C)(=O)=Nc1cccc(-n2c(C3CC3)c(F)c3cnc(Nc4ccc(C5C[C@H]6CC[C@@H](C5)N6)cc4)nc32)n1` (some centres unmarked) [Example 63], the IC50 (WEE1 kinase) is reported as 0.85 nM.

`CS(C)(=O)=Nc1cccc(-n2c(C3CC3)c(F)c3cnc(Nc4ccc(N5C[C@H]6CC[C@@H](C5)N6)cc4)nc32)n1` [Example 80, ((6-(2-((4-((1R,5S)-3,8-diazabicyclo[3.2.1]octan-3-yl)phenyl)amino)-6-cyclopropyl-5-fluoro-7H-pyrrolo[2,3-d]pyrimidin-7-yl)pyridin-2-yl)imino)dimethyl-λ^6-sulfanone] showed an IC50 (WEE1 kinase) of 1.18 nM.

For `CCCc1cc2cnc(Nc3ccc(N4CCN(CCN(C)C)CC4)cc3)nc2n1-c1cccc(C(C)(C)O)n1` [Example 109, 2-(6-(6-propyl-2-((4-(4 (2-(dimethylamino)ethyl)piperazin-1-yl)phenyl)amino)-7H-pyrrolo[2,3-d]pyrimidin-7-yl)pyridin-2-yl)propan-2-ol], the IC50 (WEE1 kinase) was 1.12 nM.

Compound `CC(C)c1cc2cnc(Nc3ccc(N4CCN(C)CC4)cc3)nc2n1-c1cccc(C(C)(C)O)n1` [Example 141, 2-(6-(6-isopropyl-2-((4-(4-methylpiperazin-1-yl)phenyl)amino)-7H-pyrrolo[2,3-d]pyrimidin-7-yl)pyridin-2-yl)propan-2-ol] has an IC50 (WEE1 kinase) of 0.84 nM.

Work on `Cc1cc2cnc(Nc3ccc(N4CCN(C)CC4)cc3)nc2n1-c1cccc(C(C)(C)O)n1` [Example 145, 2-(6-(6-methyl-2-((4 (4-methylpiperazin-1-yl)phenyl)amino)-7H-pyrrolo[2,3-d]pyrimidin-7-yl)pyridin-2-yl)propan-2-ol] yielded an IC50 (WEE1 kinase) of 0.6 nM.

Compound `CCc1cc2cnc(Nc3ccc(N4CCN(C)CC4)cc3)nc2n1-c1cccc(C(C)(C)O)n1` [Example 159, 2-(6-(6-ethyl-2-((4-(4-methylpiperazin-1-yl)phenyl)amino)-7H-pyrrolo[2,3-d]pyrimidin-7-yl)pyridin-2-yl)propan-2-ol] has an IC50 (WEE1 kinase) of 0.59 nM.

Source: patent US20220194960A1, “WEE1 INHIBITOR AND PREPARATION AND USE THEREOF” (SHOUYAO HOLDINGS (BEIJING) CO., LTD., priority 2019, published 2022)
